This note sets out measurements from patent US20250154173A1 (Merck Sharp & Dohme LLC, priority 2023, published 2025).

In this test the target is T1, GST-RIPK1 (recombinant GST-RIPK1 kinase domain (residues 1-327)) (Homo sapiens, UniProt Q13546).
T1 construct: recombinant GST-RIPK1 kinase domain (residues 1-327) enzyme produced from baculovirus-transfected Sf21 cells; host or cells: baculovirus-transfected Sf21 insect cells
T1 sequence (Q13546 1-327): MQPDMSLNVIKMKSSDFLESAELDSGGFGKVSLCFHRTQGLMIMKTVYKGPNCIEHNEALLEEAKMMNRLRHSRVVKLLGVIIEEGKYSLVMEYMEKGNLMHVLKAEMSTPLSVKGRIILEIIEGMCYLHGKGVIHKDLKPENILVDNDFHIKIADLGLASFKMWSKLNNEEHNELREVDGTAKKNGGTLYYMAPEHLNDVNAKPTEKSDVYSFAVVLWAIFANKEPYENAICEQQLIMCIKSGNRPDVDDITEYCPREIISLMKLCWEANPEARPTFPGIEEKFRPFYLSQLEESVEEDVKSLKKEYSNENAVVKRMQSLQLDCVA
Description: RIPK1-ADP-Glo Enzymatic Assay. The test is classed as biochemical. As to conditions: ten-point titration, top compound concentration of 100000 nM; 25 nM GST-RIPK1, 300 μM ATP, 3 μM dephosphorylated-MBP; 30 min pre-incubation, 150 min reaction. In outline:
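GST-RIPK1 kinase domain (residues 1-327, Sf21-expressed), 25 nM, preincubated 30 min with compound, then reacted 150 min with 300 μM ATP and 3 μM dephosphorylated MBP in pH 7.3 Hepes buffer, 1% DMSO. ADP measured by ADP-Glo luminescence; EC50 from ten-point titration (top 100000 nM), four-parameter fit.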

For `O=C1N2C(CC[C@H]2c2cnccn2)OC12CC(OCc1cnc3nncn3c1)C2` (stereo partly drawn) [Example 18.2, (5′S)-5′-(pyrazin-2-yl)-3-[([1,2,4]triazolo[4,3-a]pyrimidin-6-yl)methoxy]tetrahydro-3′H-spiro[cyclobutane-1,2′-pyrrolo[2,1-b][1,3]oxazol]-3′-one], the EC50 came out at 66 nM. Consider `O=C1N2[C@@H](CC[C@H]2c2ccccc2)OC12CC(Oc1ccncc1F)C2` (stereo partly drawn) [Example 8.7, (5′S,7a′R)-3-[(3-fluoropyridin-4-yl)oxy]-5′-phenyltetrahydro-3′H-spiro[cyclobutane-1,2′-pyrrolo[2,1-b][1,3]oxazol]-3′-one], for which the EC50 was 74 nM.

Consider `N#Cc1cc(F)cc(OC2CC3(C2)O[C@@H]2CC[C@@H](c4cnccn4)N2C3=O)c1` (some centres unmarked) [Example 19.16], for which the EC50 was determined as 18 nM. With `O=C1N2C(CC[C@H]2c2cnccn2)OC12CC(OCc1ccc3cnccc3c1)C2` (stereo partly drawn) [Example 18.37, (5′S)-3-[(isoquinolin-6-yl)methoxy]-5′-(pyrazin-2-yl)tetrahydro-3′H-spiro[cyclobutane-1,2′-pyrrolo[2,1-b][1,3]oxazol]-3′-one] the figure was 15 nM; with `N#Cc1ccc(OC2CCC2)cc1COC1CC2(C1)OC1CC[C@@H](c3cnccn3)N1C2=O` (stereo partly drawn) [Example 18.40, 4-(cyclobutyloxy)-2-({[(5′S)-3′-oxo-5′-(pyrazin-2-yl)tetrahydro-3′H-spiro[cyclobutane-1,2′-pyrrolo[2,1-b][1,3]oxazol]-3-yl]oxy}methyl)benzonitrile], 119 nM; with `O=C1N2[C@@H](CC[C@H]2c2cc(F)cc(F)c2)O[C@]12C[C@H](Oc1ncnn3c(Br)ccc13)C2` [Example 11.1, (1r,3R,5′S,7a′R)-3-((7-bromopyrrolo[2,1-f][1,2,4]triazin-4-yl)oxy)-5′-(3,5-difluorophenyl)tetrahydro-3′H-spiro[cyclobutane-1,2′-pyrrolo[2,1-b]oxazol]-3′-one], 12 nM. In the case of `O=C1N2[C@@H](CC[C@H]2c2cnccn2)O[C@]12C[C@@H](OCc1ccc3oncc3c1)C2` [Example 18.59, (5′S)-3-[(1,2-benzoxazol-5-yl)methoxy]-5′-(pyrazin-2-yl)tetrahydro-3′H-spiro[cyclobutane-1,2′-pyrrolo[2,1-b][1,3]oxazol]-3′-one], the EC50 stood at 12 nM.

As to `CCc1nnc(-c2ccc(COC3CC4(C3)OC3CC[C@@H](c5cnccn5)N3C4=O)cc2)o1` (stereo partly drawn) [Example 18.56, (5′S)-3-{[4-(5-ethyl-1,3,4-oxadiazol-2-yl)phenyl]methoxy}-5′-(pyrazin-2-yl)tetrahydro-3′H-spiro[cyclobutane-1,2′-pyrrolo[2,1-b][1,3]oxazol]-3′-one], the EC50 turned out to be 11 nM. Regarding `O=C1N2C(CC[C@H]2c2cnccn2)OC12CC(OCc1cc3cncnc3s1)C2` (stereo partly drawn) [Example 18.107, (5′S)-5′-(pyrazin-2-yl)-3-(thieno[2,3-d]pyrimidin-6-ylmethoxy)tetrahydro-3′H-spiro[cyclobutane-1,2′-pyrrolo[2,1-b]oxazol]-3′-one], the EC50 amounted to 34 nM. Consider `CS(=O)(=O)c1ccc(COC2CC3(C2)OC2CC[C@@H](c4cnccn4)N2C3=O)cc1` (stereo partly drawn) [Example 18.17, (5′S)-3-{[4-(methylsulfonyl)phenyl]methoxy}-5′-(pyrazin-2-yl)tetrahydro-3′H-spiro[cyclobutane-1,2′-pyrrolo[2,1-b][1,3]oxazol]-3′-one], for which the 50% effective concentration (EC50) was 145 nM. As to `O=C1N2C(CC[C@H]2c2cnccn2)OC12CC(OCc1ccc(-c3ccon3)cc1)C2` (stereo partly drawn) [Example 18.30, (5′S)-3-{[4-(1,2-oxazol-3-yl)phenyl]methoxy}-5′-(pyrazin-2-yl)tetrahydro-3′H-spiro[cyclobutane-1,2′-pyrrolo[2,1-b][1,3]oxazol]-3′-one], the EC50 is 45 nM. With `O=C1N2[C@@H](CC[C@H]2c2cnccn2)OC12CC(OCc1cccs1)C2` (stereo partly drawn) [Example 22.4, (5′S,7a′R)-5′-(pyrazin-2-yl)-3-(thiophen-2-ylmethoxy)tetrahydro-3′H-spiro[cyclobutane-1,2′-pyrrolo[2,1-b]oxazol]-3′-one] the figure was 146 nM; with `O=C1N2[C@@H](CC[C@H]2c2ccc(F)cc2)O[C@]12C[C@H](Oc1ncnn3cccc13)C2` [Example 9.27, (1r,3R,5′S,7a′R)-5′-(4-fluorophenyl)-3-[(pyrrolo[2,1-f][1,2,4]triazin-4-yl)oxy]tetrahydro-3′H-spiro[cyclobutane-1,2′-pyrrolo[2,1-b][1,3]oxazol]-3′-one], 12 nM.

Regarding `CC(O[C@H]1C[C@@]2(C1)O[C@@H]1CC[C@@H](c3cc(F)cc(F)c3)N1C2=O)c1ccc(F)cn1` (single isomer, unassigned) [Example 12.1, (1R,3R,5′S,7a′R)-5′-(3,5-difluorophenyl)-3-((R or S)-1-(5-fluoropyridin-2-yl)ethoxy)tetrahydro-3′H-spiro[cyclobutane-1,2′-pyrrolo[2,1-b]oxazol]-3′-one], the EC50 worked out at 390 nM.

As to `O=C1N2C(CC[C@H]2c2cnccn2)OC12CC(OCc1ccc(Cn3ccnc3)cc1)C2` (stereo partly drawn) [Example 18.25, (5′S)-3-({4-[(1H-imidazol-1-yl)methyl]phenyl}methoxy)-5′-(pyrazin-2-yl)tetrahydro-3′H-spiro[cyclobutane-1,2′-pyrrolo[2,1-b][1,3]oxazol]-3′-one], the EC50 was 48 nM. In the case of `Cn1cc(COC2CC3(C2)OC2CC[C@@H](c4cnccn4)N2C3=O)cn1` (stereo partly drawn) [Example 18.5, (5′S)-3-[(1-methyl-1H-pyrazol-4-yl)methoxy]-5′-(pyrazin-2-yl)tetrahydro-3′H-spiro[cyclobutane-1,2′-pyrrolo[2,1-b][1,3]oxazol]-3′-one] it was 307 nM; in that of `O=C1N2C(CC[C@H]2c2cnccn2)OC12CC(OCc1ccc3nccn3c1)C2` (stereo partly drawn) [Example 18.19, (5′S)-3-[(imidazo[1,2-a]pyridin-6-yl)methoxy]-5′-(pyrazin-2-yl)tetrahydro-3′H-spiro[cyclobutane-1,2′-pyrrolo[2,1-b][1,3]oxazol]-3′-one], 110 nM; in that of `N#Cc1cc(F)cc(OC2CC3(C2)O[C@@H]2CC[C@@H](c4cnccn4)N2C3=O)c1` (stereo partly drawn) [Example 19.4, 3-fluoro-5-{[(5′S,7a′R)-3′-oxo-5′-(pyrazin-2-yl)tetrahydro-3′H-spiro[cyclobutane-1,2′-pyrrolo[2,1-b][1,3]oxazol]-3-yl]oxy}benzonitrile], 33 nM. As to `O=C1N2[C@@H](CC[C@H]2c2cnccn2)O[C@]12C[C@H](Oc1ccc(F)cc1F)C2` [Example 7.1, (1r,3R,5′S,7a′R)-3-(2,4-difluorophenoxy)-5′-(pyrazin-2-yl)tetrahydro-3′H-spiro[cyclobutane-1,2′-pyrrolo[2,1-b]oxazol]-3′-one], the EC50 was 20 nM. As to `O=C1N2[C@@H](CC[C@H]2c2cc(F)cc(F)c2)OC12CC(Oc1ccc(F)cn1)C2` (stereo partly drawn) [Example 9.37, (5′S,7a′R)-5′-(3,5-difluorophenyl)-3-[(5-fluoropyridin-2-yl)oxy]tetrahydro-3′H-spiro[cyclobutane-1,2′-pyrrolo[2,1-b][1,3]oxazol]-3′-one], the EC50 was determined as 19 nM. Take `N#CC1(c2ccc(COC3CC4(C3)OC3CC[C@@H](c5cnccn5)N3C4=O)cn2)CCC1` (stereo partly drawn) [Example 18.78, 1-[5-({[(5′S)-3′-oxo-5′-(pyrazin-2-yl)tetrahydro-3′H-spiro[cyclobutane-1,2′-pyrrolo[2,1-b][1,3]oxazol]-3-yl]oxy}methyl)pyridin-2-yl]cyclobutane-1-carbonitrile]: the EC50 turned out to be 721 nM. Consider `CCC(C)Oc1cccc(COC2CC3(C2)OC2CC[C@@H](c4cnccn4)N2C3=O)n1` (stereo partly drawn) [Example 18.13, (5′S)-3-({6-[(butan-2-yl)oxy]pyridin-2-yl}methoxy)-5′-(pyrazin-2-yl)tetrahydro-3′H-spiro[cyclobutane-1,2′-pyrrolo[2,1-b][1,3]oxazol]-3′-one], for which the EC50 was 46 nM. Take `Cn1cc(C2CCC3OC4(CC(Oc5cc(C#N)ncn5)C4)C(=O)N32)cn1` (single isomer, unassigned) [Example 6.2, 6-((((1s or r),3R,5′(S or R),7a′R)-5′-(1-methyl-1H-pyrazol-4-yl)-3′-oxotetrahydro-3′H-spiro[cyclobutane-1,2′-pyrrolo[2,1-b]oxazol]-3-yl)oxy)pyrimidine-4-carbonitrile]: the half-maximal effective concentration (EC50) was found to be 99000 nM. Turning to `O=C1N2[C@@H](CC[C@H]2c2cc(F)cc(F)c2)O[C@]12C[C@H](Oc1ncnn3cccc13)C2` [Example 9.22, (1r,3R,5′S,7a′R)-5′-(3,5-difluorophenyl)-3-[(pyrrolo[2,1-f][1,2,4]triazin-4-yl)oxy]tetrahydro-3′H-spiro[cyclobutane-1,2′-pyrrolo[2,1-b][1,3]oxazol]-3′-one], the EC50 stood at 11 nM. In the case of `O=C1N2C(CC[C@H]2c2cnccn2)OC12CC(OCc1ccc(OCCF)nn1)C2` (stereo partly drawn) [Example 18.44, (5′S)-3-{[6-(2-fluoroethoxy)pyridazin-3-yl]methoxy}-5′-(pyrazin-2-yl)tetrahydro-3′H-spiro[cyclobutane-1,2′-pyrrolo[2,1-b][1,3]oxazol]-3′-one] it was 241 nM; in that of `O=C1N2C(CC[C@H]2c2cnccn2)OC12CC(OCc1cc3ncccc3s1)C2` (stereo partly drawn) [Example 18.43, (5′S)-5′-(pyrazin-2-yl)-3-[(thieno[3,2-b]pyridin-2-yl)methoxy]tetrahydro-3′H-spiro[cyclobutane-1,2′-pyrrolo[2,1-b][1,3]oxazol]-3′-one], 6 nM.

For orientation: EC50 means the concentration giving half of the maximal effect.
